Results as given in publication PMC12036557, “Functional Imaging of CYP3A4 at Multiple Dimensions Using an AI‐Driven High Performance Fluorogenic Substrate” (Small (Weinheim an Der Bergstrasse, Germany), 2025).
Like-named read-outs stand apart in the source and are kept apart here.

Experiments:
hCYP3A4 in HLMs [1] = biological target: T1, hCYP3A4 in HLMs (Homo sapiens, UniProt P08684); assay: NFa-based screening and characterizing of hCYP3A4 inhibitors in HLMs; settings: inhibitor 1 μM, HLMs, NFa as fluorogenic substrate
CYP3A4 [2] = biological target: T2, CYP3A4 (Homo sapiens, UniProt P08684); set-up: expressed in transfected cells; host or cells: CHO-3A4 stably transfected cell line; settings: cited from earlier work; for Specificity / cell-membrane permeability (Shortages): previously reported fluorescent substrates; for Specificity: ref 7-10 of the supplement; for cell-membrane permeability (Shortages): 9 of the supplement
CYP3A4 [3] = biological target: T2, CYP3A4; assay: in vitro; settings: pH 7.4
[4] = test system: panel of human recombinant cytochrome P450 enzymes; assay: P450 reaction phenotyping analysis; format: biochemical; settings: each recombinant CYP 2.5 nM, 37 °C, 30 min
CYP3A4 [5] = biological target: T2, CYP3A4; assay: Enzyme kinetic analyses of NFs 4-hydroxylation by hCYP3A4; format: biochemical; set-up: purchased Cypex
hCYP3A4 in HLMs [6] = biological target: T1, hCYP3A4 in HLMs; settings: 1 µM
[7] = Metabolic stability assay of 4-HNFa in phase II metabolizing system; format: in vitro ADME; settings: human, pH 7.4; HLMs in the presence of UDPGA; read-out: metabolic half-life t1/2
[8] = test system: MCF‐7, Hep3B, and U87 cells; assay: Cytotoxicity assays; format: cell-based
[9] = Optical properties, photostability and pH stability of NFa and 4-HNFa; format: physicochemical; set-up: maximum UV absorption: unit not given here

T2 sequence (P08684 whole entry): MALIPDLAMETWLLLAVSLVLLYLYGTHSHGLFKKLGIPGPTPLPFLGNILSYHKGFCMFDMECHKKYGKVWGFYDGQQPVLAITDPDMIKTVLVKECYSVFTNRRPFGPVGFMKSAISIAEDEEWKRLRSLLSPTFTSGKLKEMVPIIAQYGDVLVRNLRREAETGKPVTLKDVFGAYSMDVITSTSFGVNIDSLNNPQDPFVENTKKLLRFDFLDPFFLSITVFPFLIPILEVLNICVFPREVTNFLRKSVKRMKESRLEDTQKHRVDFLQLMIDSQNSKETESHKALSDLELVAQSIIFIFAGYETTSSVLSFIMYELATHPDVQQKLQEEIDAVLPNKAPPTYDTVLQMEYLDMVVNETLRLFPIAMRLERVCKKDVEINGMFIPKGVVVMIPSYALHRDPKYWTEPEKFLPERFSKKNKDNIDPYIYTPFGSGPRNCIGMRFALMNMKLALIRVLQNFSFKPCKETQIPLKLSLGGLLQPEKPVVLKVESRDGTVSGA
T1 sequence (P08684 whole entry): as above

`COc1cc2c(=O)n(C)c3c4cc5c(cc4ccc3c2cc1OC)OCO5` [Oxynitidine] gave a Residual activity (hCYP3A4 in HLMs [1]) of 89.98%.

For `O=C(OCc1ccccc1)c1ccccc1-c1c2ccc(=O)cc-2oc2cc(OCc3ccccc3)ccc12` [DBF, dibenzylfluorescein], the Specificity (CYP3A4 [2]) is given as “CYP2C8, CYP3A4, CYP3A5”.

For `O=c1ccc2nc3ccc(OCc4ccccc4)cc3oc-2c1` [BzRes, 7-benzyloxyresorufin], the “cell-membrane permeability (Shortages)” value (CYP3A4 [2]) is given as “low cell-membrane permeability; unavailable in vivo” and the Specificity (CYP3A4 [2]) is given as “CYP3A4 non-specific substrate”.

Work on `CC(C)=CCC[C@](C)(O)[C@H]1CC[C@]2(C)[C@@H]1[C@H](O)C[C@@H]1[C@@]3(C)CC[C@H](O)C(C)(C)[C@@H]3[C@@H](O)C[C@]12C` [Protopanaxatriol] yielded a Residual activity (hCYP3A4 in HLMs [1]) of 43.85%.

Molecule `O=C1c2c(O)cc(O)cc2O[C@H](c2ccc(O)cc2)[C@H]1O` [Aromadendrin] has a Residual activity (hCYP3A4 in HLMs [1]) of 91.70%.

For `COc1cc(C2Oc3cc([C@H]4Oc5cc(O)cc(O)c5C(=O)[C@@H]4O)ccc3OC2CO)ccc1O` (stereo partly drawn) [Silybin], the activity at 30 min, 1 µM (CYP3A4 [3]) was 89%.

With `COc1ccc2cc1Oc1ccc(cc1)C[C@H]1c3cc(c(OC)cc3CCN1C)Oc1c(OC)c(OC)cc3c1[C@H](C2)N(C)CC3` [Tetrandrine] the activity at 30 min, 1 µM (CYP3A4 [3]) was 95.2%.

`CCN1C[C@]2(OC(=O)c3ccccc3NC(C)=O)CC[C@H](OC)[C@@]34[C@@H]2C[C@@H]([C@@H]13)[C@@]1(O)C[C@H](OC)[C@H]2C[C@@H]4[C@]1(O)[C@H]2OC` [Lappaconitine] showed a Residual activity (hCYP3A4 in HLMs [1]) of 94.46%.

For `CC(C)c1nc(CN2C(=O)c3cccc4cccc(c34)C2=O)cs1` [NFd, N-(2-Isopropyl-4-thiazolemethanamino)-naphtahlimide], the “isoform specificity as P450 substrate” value [4] was “highly specific substrates for hCYP3A4”, the “CL int (V max/K m)” value (CYP3A4 [5]) was 504 µL min^−1/nmol hCYP3A4 and the K m (CYP3A4 [5]) was 4.17 ± 0.21 µM.

Molecule `CN1[C@@H]2C[C@@H](OC(=O)[C@H](CO)c3ccccc3)C[C@H]1[C@@H]1O[C@@H]12` [Scopolamine] has an activity at 1 µM (CYP3A4 [3]) of 98.8%.

Molecule `COc1c(/C=C/C(=O)c2ccc(O)cc2)ccc(O)c1CC=C(C)C` [Licochalcone C] has a Residual activity (hCYP3A4 in HLMs [6]) of 59.04%.

Work on `COc1ccc(-c2oc3c(CC=C(C)C)c(O)cc(O)c3c(=O)c2O)cc1` [Icaritin] yielded an activity at 30 min, 1 µM (CYP3A4 [3]) of 90.1%.

For `COc1cc2c(cc1O)[C@@H](Cc1ccc(O)c(Oc3ccc(C[C@@H]4c5cc(OC)c(OC)cc5CCN4C)cc3)c1)N(C)CC2` [Daurisoline], the Residual activity (hCYP3A4 in HLMs [1]) was 91.85%.

For `CC1(C)CC[C@]2(C(=O)O)CC[C@]3(C)C(=CC[C@@H]4[C@@]5(C)CC[C@H](O)C(C)(C)[C@@H]5CC[C@]43C)[C@@H]2C1` [Oleanolic acid], the activity at 1 µM (CYP3A4 [3]) was 70.2%.

In the case of `CCN1C[C@]2(COC)[C@H](O)C[C@H](OC)[C@@]34[C@@H]5C[C@@]6(O)[C@H](OC(=O)c7ccccc7)[C@@H]5[C@@](OC(C)=O)([C@@H]([C@H](OC)[C@H]23)[C@@H]14)[C@@H](O)[C@@H]6OC` [Aconitine], the activity at 30 min, 1 µM (CYP3A4 [3]) is reported as 94.8%.

With `O=c1ccc2ccc(O)cc2o1` [7‐hydroxycoumarin, reference compound] the half-life at 20 μM [7] was 16.9 min.

`O=C1C[C@@H](c2ccc(O)cc2)Oc2cc(O)ccc21` [Liquiritigenin] showed a Residual activity (hCYP3A4 in HLMs [1]) of 90.60%.

With `O=c1c(-c2ccc(O)cc2)coc2cc(O)ccc12` [Daidzein] the activity at 30 min, 1 µM (CYP3A4 [3]) was 97.4%.

`CC(C)=CCc1cc(C(=O)/C=C/c2ccc(O)cc2)c(O)cc1O` [Bavachalcone] showed a Residual activity (hCYP3A4 in HLMs [1]) of 90.43%.

With `Cc1nc(CN2C(=O)c3cccc4cccc(c34)C2=O)cs1` [NFb, N-(2-Methyl-4-thiazolemethanamino)-naphtahlimide] the “isoform specificity as P450 substrate” value [4] was “highly specific substrates for hCYP3A4”, the “CL int (V max/K m)” value (CYP3A4 [5]) was 558 µL min^−1/nmol hCYP3A4 and the K m (CYP3A4 [5]) was 7.51 ± 0.49 µM.

In the case of Sanggenone C, the Residual activity (hCYP3A4 in HLMs [6]) is reported as 92.64%.

`COC[C@@]12CC[C@H](OC)[C@]34C(C([C@H](OC)[C@H]13)[C@]1(OC(C)=O)[C@H]3[C@@H](OC(=O)c5ccccc5)[C@](O)(C[C@H]34)[C@@H](OC)[C@@H]1O)N(C)C2` [Hypaconitine] showed an activity at 1 µM (CYP3A4 [3]) of 94.9%.

Molecule `COc1ccc2c(c[n+](C)c3c4cc5c(cc4ccc23)OCO5)c1OC` [Chelerythrine] has an activity at 1 µM (CYP3A4 [3]) of 89.6%.

`c1c2c(cc3c1OCO3)-c1cc3ccc4c(c3c[n+]1CC2)OCO4` [Coptisine] gave an activity at 1 µM (CYP3A4 [3]) of 77.9%.

In the case of `O=C1c2cccc3c(O)ccc(c23)C(=O)N1Cc1cscn1` [4-HNFa, 4-Hydroxyl-N-(4-thiazolemethanamino)-naphtahlimide], the half-life at 20 μM [7] is reported as 58.6 min, the cytotoxicity [8] is reported as “weak cytotoxicity” and the “Fluorescence quantum yield Φf” value [9] is reported as 0.129. The “Molar extinction coefficient ε” value [9] was 25300 M⁻¹ cm⁻¹, the “maximum UV absorption” value [9] was 450 and the maximum fluorogenic emission [9] was 555 nm. The “pH range of stable fluorescence signals ≈555 nM” value ([9]; 2 μM) was 6.5–12.0 and the photostability ([9]; continuous illumination at 450 nm) was “good photostability”.

Work on `COc1ccc(-c2cc(=O)c3c(O)c(OC)c(O)cc3o2)cc1` [Pectolinarigenin] yielded an activity at 30 min, 1 µM (CYP3A4 [3]) of 98%.

Work on `COc1cc2c(cc1OC)-c1cc3ccc4c(c3c[n+]1CC2)OCO4` [Epiberberine] yielded a Residual activity (hCYP3A4 in HLMs [1]) of 89.82%.

`COc1ccc2c(c1)[nH]c1c(C)nccc12` [Harmine] showed an activity at 1 µM (CYP3A4 [3]) of 101%.

In the case of `COc1ccc(-c2cc(=O)c3c(O)c(OC)c(O)c(OC)c3o2)cc1` [Lysionotin], the Residual activity (hCYP3A4 in HLMs [1]) is reported as 96.88%.

`C=CCc1ccc(O)c(-c2cc(CC=C)ccc2O)c1` [Magnolol] showed an activity at 1 µM (CYP3A4 [3]) of 106%.

In the case of `C=CC(C)(C)c1cc(/C=C/C(=O)c2ccc(O)cc2)c(OC)cc1O` [Licochalcone A], the Residual activity (hCYP3A4 in HLMs [1]) is reported as 39.20%.

`C=C1[C@H]2C[C@@]3([C@@H]1O)[C@@H](CC2=O)[C@]12[C@@H]4C[C@H]3[C@H]1N(CC)C[C@]4(C)CC[C@@H]2O` [Songorine] showed an activity at 1 µM (CYP3A4 [3]) of 104%.

With `O[C@H]1[C@H]2c3cc4c(cc3CN3CCC(=C[C@@H]1O)[C@H]23)OCO4` [Lycorine] the activity at 1 µM (CYP3A4 [3]) was 92.1%.

In the case of `O=c1cc(C(F)(F)F)c2ccc(OCc3ccccc3)cc2o1` [BFC, 7-benzyloxy-4-trifluoromethylcoumarin], the Specificity (CYP3A4 [2]) is listed as “CYP3A4 non-specific substrate”.

Molecule `COc1ccc(-c2oc3c(CC=C(C)C)c(O)cc(O)c3c(=O)c2O)cc1` [Anhydroicaritin] has a Residual activity (hCYP3A4 in HLMs [1]) of 87.82%.

For `CCN1C(=O)c2cccc3cccc(c23)C1=O` [NEN, N‐ethyl‐1,8‐naphthalimide], the “cell‐membrane permeability” value (CYP3A4 [2]) is given as “very poor cell‐membrane permeability”, the “cell-membrane permeability (Shortages)” value (CYP3A4 [2]) is given as “low cell-membrane permeability; unavailable in vivo” and the Specificity (CYP3A4 [2]) is given as “CYP3A4 specific substrate”.

Work on `O=C1c2ccccc2C(=O)c2ccccc21` [Anthraquinone] yielded an activity at 30 min, 1 µM (CYP3A4 [3]) of 94.3%.

With `O=C1C=CC[C@@H]2[C@H]3CCC[N+]4([O-])CCC[C@@H](CN12)[C@@H]34` (stereo partly drawn) [Oxysophocarpine] the activity at 1 µM (CYP3A4 [3]) was 96.1%.

`O=c1cccc2n1C[C@@H]1CNC[C@H]2C1` [Cytisine] gave an activity at 1 µM (CYP3A4 [3]) of 94.1%.

Molecule `CN1[C@@H]2CC[C@H]1C[C@@H](OC(=O)[C@H](CO)c1ccccc1)C2` [Hyoscyamine] has an activity at 1 µM (CYP3A4 [3]) of 98%.

Molecule `CC(C)=CCCC(C)(O)[C@H]1CC[C@]2(C)[C@@H]1[C@H](O)C[C@@H]1[C@@]3(C)CC[C@H](O)C(C)(C)[C@@H]3CC[C@]12C` (stereo in doubt) [Protopanaxadiol] has a Residual activity (hCYP3A4 in HLMs [1]) of 69.66%.

Work on `O=C1C[C@@H]2OCC=C3CN4CC[C@]56c7ccccc7N1[C@H]5[C@H]2[C@H]3C[C@H]46` [Strychnine] yielded an activity at 30 min, 1 µM (CYP3A4 [3]) of 96.3%.

`O=C1C=CC[C@@H]2[C@H]3CCCN4CCC[C@@H](CN12)[C@@H]34` [Sophocarpine] showed an activity at 30 min, 1 µM (CYP3A4 [3]) of 94.1%.
